Measured values as given in patent US20260076949A1, “STABLE MONOHYDRATE OF DF2755A AND PROCESS FOR ITS PREPARATION” (Dompe' Farmaceutici SPA, priority 2023, published 2026).

Columns and labels:
CXCR1 = molecular target: T1, CXCR1 (Homo sapiens, UniProt P25024); conditions: background, literature; cited from earlier work
T1 sequence (P25024 1-350): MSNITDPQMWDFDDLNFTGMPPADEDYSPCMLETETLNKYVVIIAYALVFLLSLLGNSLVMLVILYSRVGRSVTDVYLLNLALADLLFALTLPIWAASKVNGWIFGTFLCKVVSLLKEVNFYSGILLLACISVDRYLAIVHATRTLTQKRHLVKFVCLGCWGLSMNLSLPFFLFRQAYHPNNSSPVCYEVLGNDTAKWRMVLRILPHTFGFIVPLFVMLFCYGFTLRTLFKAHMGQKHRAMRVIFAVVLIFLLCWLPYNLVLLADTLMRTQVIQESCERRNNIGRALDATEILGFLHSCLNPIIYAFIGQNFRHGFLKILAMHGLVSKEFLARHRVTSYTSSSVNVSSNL

[1] = background, literature; cited from earlier work
[2] = Stability test of anhydrous form in climatic chamber (50% R.H., about 25° C., 24 hours); type: physicochemical
Experimental: (§1) • Instrument: Mettler DL38, V30 or equivalent • Electrode: Double platinum pin electrode DM 143-SC for Karl Fischer titration. • Titrant: Karl Fischer reagent 5 mg H2O/ml • Solvent: 30 ml of methanol previously neutralized with Karl Fischer reagent. • Procedure: about 0.2 g of the product, accurately weighed, were dissolved in the solvent and titrated with the Karl Fischer reagent.

CXCR2 = molecular target: T2, CXCR2 (Homo sapiens, UniProt P25025); conditions: background, literature; cited from earlier work
T2 sequence (P25025 1-360): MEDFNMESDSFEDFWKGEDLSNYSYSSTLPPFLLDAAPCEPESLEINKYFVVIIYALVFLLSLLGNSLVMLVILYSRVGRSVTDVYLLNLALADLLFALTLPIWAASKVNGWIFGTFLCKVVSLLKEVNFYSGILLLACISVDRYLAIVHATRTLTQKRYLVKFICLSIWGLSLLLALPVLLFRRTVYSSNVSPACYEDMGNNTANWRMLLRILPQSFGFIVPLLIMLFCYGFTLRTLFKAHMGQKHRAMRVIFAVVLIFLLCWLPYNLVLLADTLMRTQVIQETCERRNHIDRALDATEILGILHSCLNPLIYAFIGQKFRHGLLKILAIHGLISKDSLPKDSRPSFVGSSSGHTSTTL

[3] = Stability test under accelerated conditions B (40° C. and 75% R.H.); type: physicochemical; design: key to Appearance: Compl.: Compl: compliant
Experimental: • Apparatus: Agilent HP 1100, HP 1200 or equivalent HPLC system with UV detector • Detector: wavelength: 220 nm • Column: BDS Hypersyl C18, 250×4.6 mm, 5 μm (Thermo) or equivalent • Column temperature: 35° C. • Mobile phase: (A) Buffer solution KH2PO4 0.025M (pH 3.0). Procedure: dissolve 3.4 g of potassium dihydrogen phosphate in water and dilute to 1000 ml with water; adjust to pH 3.0 with dilute phosphoric acid or with potassium hydroxide solutions. (B) acetonitrile. • Flow: 1.3 ml/minute • Injection Volume: 10 μl • Time between injections: 26 min • Diluent: H2O/CH3CN (40/60) • Relative retention time: DF 2755 Rt 11.8 min • Gradient: Table 2
• Chromatographic conditions • Apparatus: Agilent HP 1100, HP 1200 or equivalent HPLC system with UV detector • Detector: wavelength: 294 nm • Column: Chiralpak AS-RH, 150×4.6 mm […] (Daicel) or equivalent • Column temperature: 35° C. • Mobile phase: (A) Buffer solution KH2PO4 0.025M (pH 3.0) Procedure: dissolve 3.4 g of potassium dihydrogen phosphate in water and dilute to 1000 ml with water; adjust to pH 3.0 with dilute phosphoric acid or with potassium hydroxide solutions; (B) acetonitrile • Flow: 0.7 ml/minute • Injection volume: 10 μl • Time between injections: 45 min • Diluent: H2O/CH3CN (40/60) • Eluent: 70% Mobile phase A, 30% Mobile phase B
as §1
(§2) The analysis was carried out on three samples and the results averaged. The limit had to be not more than 10.0%.
(§3) The monohydrate DF2755A was then subjected to stability tests under the following conditions: • A) at 30° C. and 65% R.H. (up to 18 months) and • B) at 40° C. and 75% R.H. (accelerated stability up to 12 months).
(§4) The samples were analysed for appearance, water content, HPLC purity, HPLC assay, HPLC enantiomeric purity and DSC thermal behaviour.

[4] = Stability test under conditions A (30° C. and 65% R.H.); type: physicochemical
Experimental: as §3, §4

[5] = Tapped and bulk density (Ph. Eur. 2.9.34), compressibility index, Hausner ratio; type: physicochemical
Experimental: Tapped and Bulk Density were determined with a density tester ERWEKA SMV 102 (Heusenstamm, Germany) according to European Pharmacopeia (Ph. Eur. 2.9.34).
Compressibility Index was calculated according to the formula:
C.I.=100×(tapped density−bulk density)/tapped density.
Hausner ratio was calculated according to the formula:
H.r.=tapped density/bulk density

[6] = Water content by Karl-Fischer of the prepared product; type: physicochemical; conditions: product as prepared by controlled hydration
Experimental: as §1
[formula] • where • V=ml of the Karl Fischer reagent used in the titration • e=equivalent of the Karl Fischer reagent (mg H2O/ml) • w=weight of the sample in g
as §2

[7] = Particle size distribution (Malvern Mastersizer 3000, Aero S); type: physicochemical; conditions: powder of Example 3A
Experimental: Particle Size Distribution was measured by Malvern Mastersizer 3000 using Aero S accessory.

[8] = 50% R.H., about 25° C., 24 hours

Structure (SMILES): C[C@H](C(=O)[O-])c1ccc(Nc2nc(C(F)(F)F)cs2)cc1.[Na+] [anhydrous DF2755A, sodium (2S)-2-(4-{[4-(trifluoromethyl)-1,3-thiazol-2-yl]amino}phenyl) propanoate]
- Inhibitory activity of CXCR1 receptor (CXCR1): selective dual potent inhibitory activity
- Oral pharmacokinetic profile [1]: favorable
- Appearance after exposure [2, 8]: sticky hydrated solid
- Water content measured by Karl Fischer analysis after exposure [2, 8]: 17%
- Amount of by-product of hydroxylation at position 4 of the thiazole ring (1H-NMR) ([2]; after exposure to humidity, about 25° C., 24 hours): about 50 % mol/mol
- Hygroscopicity ([2]; anhydrous form, absorbs water from the environment): highly hygroscopic
- Stability conclusion ([2]; under the test conditions (50% R.H., about 25° C., 24 hours)): both physically and chemically unstable
- Inhibitory activity of CXCR2 receptor (CXCR2): selective dual potent inhibitory activity

Structure (SMILES): C[C@H](C(=O)[O-])c1ccc(Nc2nc(C(F)(F)F)cs2)cc1.O.[Na+] [monohydrate DF2755A, crystalline monohydrate sodium (2S)-2-(4-{[4-(trifluoromethyl)-1,3-thiazol-2-yl]amino}phenyl) propanoate]
- Assay % (HPLC) ([3]; 40° C./75% R.H., 0 months): 97.40%
- DFL23803 (HPLC) by-product content ([3]; 40° C./75% R.H., 0 months): ≤0.11%
- Enantiomeric purity % (HPLC): DF2703Y content ([3]; 40° C./75% R.H., 0 months): 1.0%
- Total impurities content % (HPLC) ([3]; 40° C./75% R.H., 0 months): 0.03%
- Water content (K.F %) ([3]; 40° C./75% R.H., 0 months): 5.27%
- Appearance ([3]; 40° C./75% R.H., 0 months, limit white to ivory powder): Compl.
- Appearance ([3]; 40° C./75% R.H., 1 month): Compl.
- Assay % (HPLC) ([3]; 40° C./75% R.H., 1 month): 96.93%
- DFL23803 (HPLC) by-product content ([3]; 40° C./75% R.H., 1 month): ≤0.11%
- Enantiomeric purity % (HPLC): DF2703Y content ([3]; 40° C./75% R.H., 1 month): 1.0%
- Total impurities content % (HPLC) ([3]; 40° C./75% R.H., 1 month): 0.03%
- Water content (K.F %) ([3]; 40° C./75% R.H., 1 month): 5.27%
- Appearance ([3]; 40° C./75% R.H., 3 months): Compl.
- Assay % (HPLC) ([3]; 40° C./75% R.H., 3 months): 97.67%
- DFL23803 (HPLC) by-product content ([3]; 40° C./75% R.H., 3 months): ≤0.11%
- Enantiomeric purity % (HPLC): DF2703Y content ([3]; 40° C./75% R.H., 3 months): 1.0%
- Total impurities content % (HPLC) ([3]; 40° C./75% R.H., 3 months): 0.03%
- Water content (K.F %) ([3]; 40° C./75% R.H., 3 months): 5.12%
- Appearance ([3]; 40° C./75% R.H., 6 months): Compl.
- Assay % (HPLC) ([3]; 40° C./75% R.H., 6 months): 96.94%
- DFL23803 (HPLC) by-product content ([3]; 40° C./75% R.H., 6 months): ≤0.11%
- Enantiomeric purity % (HPLC): DF2703Y content ([3]; 40° C./75% R.H., 6 months): 1.0%
- Total impurities content % (HPLC) ([3]; 40° C./75% R.H., 6 months): 0.03%
- Water content (K.F %) ([3]; 40° C./75% R.H., 6 months): 4.95%
- Appearance ([3]; 40° C./75% R.H., 12 months): Compl.
- Assay % (HPLC) ([3]; 40° C./75% R.H., 12 months): 100.3%
- DFL23803 (HPLC) by-product content ([3]; 40° C./75% R.H., 12 months): ≤0.11%
- Enantiomeric purity % (HPLC): DF2703Y content ([3]; 40° C./75% R.H., 12 months): 1.0%
- Total impurities content % (HPLC) ([3]; 40° C./75% R.H., 12 months): 0.02%
- Water content (K.F %) ([3]; 40° C./75% R.H., 12 months): 5.17%
- Time completely stable ([3]; accelerated conditions B, 40° C. and 75% R.H.): ≥ 12 months
- DSC profile over time ([3]; conditions B, 40° C./75% R.H.): substantially the same DSC profile over time
- Hygroscopicity ([3]; unchanged water content for at least 12 months under accelerated stability conditions): not hygroscopic
- Time completely stable ([4]; 30° C. and 65% R.H.): ≥ 18 months
- DSC profile over time ([4]; 30° C./65% R.H.): substantially the same DSC profile over time
- Compressibility index ([5]; 100×(tapped density−bulk density)/tapped density): 30.7
- Bulk density ([5]; powder of Example 3A): 0.178 g/mL
- Tapped density ([5]; powder of Example 3A): 0.256 g/mL
- Hausner ratio ([5]; tapped density/bulk density): 1.44
- Water content by Karl Fisher method [6]: 5.27 % by weight
- Particle size distribution D(0.1) [7]: 2.09 μm
- Particle size distribution D(0.5) [7]: 7.86 μm
- Particle size distribution D(0.9) [7]: 25.42 μm
